Measurements reported in patent publication US20090170858A1, “Methods and Compositions Containing Natural Folates for Protecting Against Radiation Damage” (priority 2005, published 2009).
“Also recorded” adds a separate entry of the source.

What was measured:
[1] = Protocol: (§1) UVA and UVB irradiation were carried out under the following conditions. Samples were exposed to UV light at a distance of 30 cm from either a 15 W UVA lamp, Sylvania 350 BL, (lambda max=365 nm, 820 μW/cm2) or 15 W UVB lamp, UVP (lambda max=302 nm, 820 μW/cm2); both purchased from UVP, Inc., USA. The lamps were mounted in a UVP Model XX-15 lamp holder rested on a XX exposure stand.
(§2) To give a solution depth of about 3 mm, 0.5 ml reaction volumes were used in clear 24-well plates. To prevent evaporation during the UVA exposure, samples were covered with MICROAMP™ Optical Adhesive Film (ABI) allowing greater than 80% transmission above 330 nm. […] reactions were covered with a quartz window. All reactions were performed at ambient temperature in 10 mM potassium phosphate pH 7.41 (measured at 10 mM and 21° C.), equilibrated to air, in the presence of 100 μM diethylenetriaminepentaacetic acid in order to prevent the effect of adventitious redox-active metal ions, pre-empt the Fenton reaction and avoid hydroxyl radical-induced damage.
(§3) Reactions with photoexcited pterin-6-carboxylic acid or folic acid were carried out as follows. Samples were exposed in 24-well plates to UVA light in 0.5 ml reaction volumes containing 5-MTHF and folic acid or PCA in the absence or presence of sodium ascorbate in 10 mM potassium phosphate buffer pH 7.42. […]

[2] = Photodegradation on UVA, UVB or visible light exposure without photosensitizer (HPLC)
Protocol: as §1, §2
(§4) 5-MTHF photodegradation was assayed by HPLC using the following procedure. Samples were taken during light exposure at various times and analyzed by HPLC on a Luna phenyl-hexyl 5 μm (25×0.46 cm) column (Phenomenex) eluted at a flow rate of 1.5 ml/min with ammonium phosphate (20 mM in ammonium), pH 2.8/acetonitrile (17:1) with detection by UV absorbance using Waters 996, photodiode array spectrometer.

[3] = Rate of reaction with singlet oxygen in water; type: physicochemical; details: inferred from competition with azide
[4] = Rose Bengal photosensitization reaction, depletion of 5-MTHF (HPLC)
Protocol: Photochemical reactions with Rose Bengal were carried out as follows. Samples in septum-stoppered glass cuvettes were illuminated at a distance of 12 cm by light from a 40 W tungsten lamp passed through a Wratten #16 gelatin filter. Reactions were equilibrated with air or sparged with 100% or 1.8% O2 in argon, or extensively with 100% argon, and illumination was carried out at ambient temperature. Samples were taken through the septum by syringe and injected directly into the HPLC.
as §4

[5] = system: Supercoiled plasmid DNA, PBR 322; assay: UVA-mediated strand breaks in plasmid DNA, agarose gel electrophoresis; details: for strand-breaks in supercoiled plasmid DNA on UVA exposure / effect on the plasmid in the dark: 50 μM; for strand-breaks in supercoiled plasmid DNA on UVA exposure: UVA for 80 min, FIG. 3; for effect on the plasmid in the dark: incubated 80 min in the dark
Protocol: as §1, §2
Strand breaks in DNA were detected as follows. Supercoiled plasmid DNA is converted into a nicked circular-form (relaxed) due to single-strand breaks, and subsequently into a linear form due to double-strands breaks. The three forms can be separated by agarose gel electrophoresis. Supercoiled DNA migrates further than the linear form, which in turn migrates further than the relaxed form.
A mixture of 0.1 μg of plasmid DNA, PBR 322, and folic acid, 5-MTHF or PCA in 10 mM potassium phosphate, pH 7.4, was incubated for 80 min under the above UVA-irradiation conditions for a total exposure of 4 J/cm^2. To partially maintain the concentration of 5-MTHF, a 0.25 mM solution was continuously added to the reaction mixture at 1.1 μl/min using a Harvard syringe pump with magnetic stirring.
A sample of 10 μl of the reaction mixture was then subjected to agarose gel electrophoresis after addition of 2 μl of 10× gel loading buffer. Agarose gel for electrophoresis was prepared by dissolving 0.9% agarose in 45 mM Tris-borate buffer (pH 8.3), containing 1 mM EDTA. Electrophoresis was run at 4 V/cm for 1 h. The gel was incubated with 1 μg/ml SYBR Safe stain, and the DNA bands were scanned using Fuji FLA-5000 phosphor-imaging system.

[6] = Reaction with photoexcited pterin-6-carboxylic acid under UVA, depletion of 5-MTHF (HPLC)
Protocol: as §1, §2, §3

[7] = cited from earlier work
[8] = system: Rose Bengal-loaded THP-1 cells; details: viable Rose Bengal-loaded THP-1 cells; cited from earlier work

## CN1c2c(nc(N)[nH]c2=O)NC[C@@H]1CNc1ccc(C(=O)N[C@@H](CCC(=O)[O-])C(=O)O)cc1.CN1c2c(nc(N)[nH]c2=O)NC[C@@H]1CNc1ccc(C(=O)N[C@@H](CCC(=O)[O-])C(=O)O)cc1.[Ca+2] [5-MTHF, 5-Methyl-6S-tetrahydrofolic acid calcium salt]
[1]; UV exposure
  5-MTHF concentration that prevented photodegradation of folic acid: below 10 μM
[1]; photolysis of folic acid in the presence of 5-MTHF, FIG. 1
  folic acid maintained until 5-MTHF decayed below this concentration: below 1 μM
[2]; UVA, UVB or visible light, no photosensitizer, calcium salt
  stability when illuminated alone: stable; also recorded: unaffected; also recorded: not photolyzed directly by UV
[2]; in 1 hr, same extent as in the absence of light
  degradation (autooxidation) on exposure to UVA or UVB: < 5%
[3]
  rate of reaction with singlet oxygen: nearly diffusion limited
[4]; 25 μM 5-MTHF, pH 7.4, Rose Bengal, SOD, FIG. 2A
  depletion of 5-MTHF by visible-light sensitized Rose Bengal: depleted
[4]; competition reaction, high concentrations of O2, FIG. 2B
  effectiveness in scavenging singlet oxygen relative to azide: about 20 fold
[5]; 50 μM folic acid or PCA, UVA 80 min, 5-MTHF added continuously, 10 μM falling to 0.25 μM, calcium salt
  UVA mediated DNA-damage in the presence of folic acid or PCA: inhibited
[5]; 5-MTHF alone, UV
  cleavage of plasmid DNA induced by the compound alone under UV: does not induce cleavage of plasmid DNA
[5]; in the presence of photoexcited PCA
  5-MTHF concentration that prevented strand-breaks in plasmid DNA: below 10 μM
[6]; initial 25 μM 5-MTHF, 50 μM PCA, UVA exposure
  time to complete depletion of 5-MTHF: ≤ 15 min

## Nc1nc2ncc(C(=O)O)nc2c(=O)[nH]1 [PCA, pterin-6 carboxylic acid]
[5]
  strand-breaks in supercoiled plasmid DNA on UVA exposure: high percentage of strand-breaks
  effect on the plasmid in the dark: no effect

## O=C1O[C@H]([C@@H](O)CO)C([O-])=C1O.[Na+] [ascorbate, sodium ascorbate]
[7]
  rate constant for the reaction with singlet oxygen in water: 8.3e+06 M⁻¹ s⁻¹
[8]
  effect on the generation of protein-derived peroxides: no effect
[4]; mM levels of sodium ascorbate, high oxygen, FIG. 2C
  rate of loss of 5-MTHF in Rose-Bengal induced photosensitization: decreased
[6]; 1 mM ascorbate, 25 μM 5-MTHF, 10 μM PCA, UVA
  maintenance of 5-MTHF throughout the reaction: substantially maintained

## [N-]=[N+]=[N-].[Na+] [azide, Sodium azide]
[7]
  rate constant for the reaction with singlet oxygen in water: 4.5e+08 M⁻¹ s⁻¹
[4]; 0.5 mM azide, 100% O2, 10 μM Rose Bengal, FIG. 2B
  decrease of the depletion rate of 5-MTHF: about 50%
[4]; 5 mM azide, 100% O2, 10 μM Rose Bengal, FIG. 2B
  decrease of the initial rate of depletion of 5-MTHF: about 80%
[5]; 10 mM sodium azide, same conditions
  protection against UVA mediated DNA-damage: full protection

## Nc1nc2ncc(CNc3ccc(C(=O)N[C@@H](CCC(=O)O)C(=O)O)cc3)nc2c(=O)[nH]1 [folic acid]
[2]; UVA, HPLC, similar results with UVB
  photolysis products on exposure to UVA: initially yields, p-aminobenzoylglutamate and 6-FP
[5]
  strand-breaks in supercoiled plasmid DNA on UVA exposure: high percentage of strand-breaks
  effect on the plasmid in the dark: no effect
